For data set [1], the system named is RSV A2 F-protein expression in BEAS2B bronchial epithelial cells. Description: Assessment of RSV F protein expression in BEAS2B bronchial epithelial cells. In kind it is cell-based. Conditions: human respiratory syncytial virus, BEAS-2B, 72 h, read-out: RSV A2 F-protein IC50 (nM). Here is the method:
Assessment of RSV F Protein Expression in BEAS2B Bronchial Epithelial Cells
An early event which follows the infection of epithelial cells by RSV is the expression of RSV F-protein on the cells' surface. BEAS2B cells (SV40-immortalised human bronchial epithelial cell line) were grown in 96 well plates. Once more than 70% confluent, cells were infected with RSV A2 (#0709161v, NCPV, Public Health England, Wiltshire) at an MOI of 0.01 in clear RPMI-1640 medium (Life technologies, Paisley, UK) with 2% FBS (Life technologies, Paisley, UK), and incubated for 3 days (37° C./5% CO2).
Supernatant was aspirated and the cells were fixed with 4% formaldehyde (100 μL in PBS solution) for 20 min, washed 3 times with washing buffer (200 μL; PBS containing 0.05% Tween-20) and incubated with blocking solution (100 μL; 5% Marvel milk in PBS) for 1 hr. Cells were then washed with washing buffer (200 μL) and incubated for 1 hr at 37° C. with anti-RSV (2F7; mouse monoclonal, lot 160290, Cat. No. ab43812, Abcam plc, Cambridge, UK) F-fusion protein antibody (50 μL; prepared at a 1:1000 dilution in 5% milk/PBS-tween). After washing, cells were incubated with an HRP-conjugated anti-mouse IgG antibody (50 μL prepared at a 1:2000 dilution in 5% milk in PBS; lot 00095437, Cat.No. P0447, Dako UK Ltd, Cambridgeshire, UK) for 1 hr. Cells were washed twice with washing buffer and once with PBS. TMB substrate (100 μL; substrate reagent pack lot 320436, Cat. No. DY999, R&D Systems, Inc. Abingdon, UK) was then added and the reaction was stopped by the addition of aq sulfuric acid (50 μL; 2N). The resultant signal was determined colourimetrically (OD: 450 nm with a reference wavelength of 655 nm) in a microplate reader (Multiskan FC®, ThermoFisher Scientific). Cells were then washed and 1% crystal violet solution (50 μL; lot SLB4576, Cat. No. HT90132-1L, Sigma-Aldrich) was applied for 30 min. After washing with PBS (200 μL) 3 times, 1% SDS (100 μL) was added to each well, and plates were shaken lightly for 1 hr prior to reading the absorbance at 595 nm. The measured OD450-655 readings were corrected for cell number by dividing the OD450-655 by the OD595 readings. The percentage inhibition for each well was calculated and the IC50 value derived from the concentration-response curve generated for each test compound.

Data set [2] in a line: Cell viability: resazurin assay. In kind it is cell-based, human. Conditions: human, HEp2 cells. In short, it runs like this:
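Viability read-out: resazurin fluorescence (ex 545, em 590 nm) after 6 h, following 5-day compound incubation of HEp2 cells (37 °C, 5% CO2, 5% FBS, 0.5% DMSO final). Loss expressed as percentage of vehicle, negative if viability rose; CC50 derived from concentration-response curve where appropriate.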

For another data set, the system named is RSV A2 strain. Description: Assessment of RSV induced CPE in HEp2 cells (RSV A2 strain). It counts as cell-based. Conditions: human respiratory syncytial virus, HEp2 cells; for IC50: HEp-2, 120 h, 1 MOI, 5 days, read-out: RSV A2 CPE IC50; for inhibition at 0.1 µg/mL / inhibition at 0.01 µg/mL: HEp-2; for inhibition at 0.1 µg/mL: Inhibition (%) at 0.1 μg/mL, read-out: RSV A2 CPE % Inhibition; for inhibition at 0.01 µg/mL: Inhibition (%) at 0.01 μg/mL. A digest of the protocol: (§1)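 HEp2 cells were infected at MOI 1 with RSV A2 or RSV B Washington, with compound added at the same time (0.5% DMSO final). Incubation was 5 days for A2 and 6 days for B, then viability was read by resazurin fluorescence (545/590 nm) after 6 h. IC50, IC75 and IC90 came from concentration-response curves.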

The subject of the next data set is RSV B Washington strain. Nature of the data set: Assessment of RSV induced CPE in HEp2 cells (RSV B Washington strain). It counts as cell-based. Conditions: human respiratory syncytial virus, HEp2 cells; for IC50: HEp-2, 144 h, 1 MOI, 6 days, read-out: RSV B CPE IC50; for inhibition at 1 µg/mL: HEp-2, Inhibition (%) at 1 μg/mL, read-out: RSV B CPE % Inhibition. In short, it runs like this: as §1

On to `Cc1ccccc1NC(=O)c1cc2c(s1)-c1ccccc1N(C(=O)c1ccc(NC(=O)c3cccnc3N3CC4(CCOCC4)C3)cc1)CC2` [Example 14, 6-(4-(2-(7-oxa-2-azaspiro[3.5]nonan-2-yl)nicotinamido)benzoyl)-N-(o-tolyl)-5,6-dihydro-4H-benzo[b]thieno[2,3-d] azepine-2-carboxamide], for which the IC50 (in general, the concentration needed to halve the response being measured) in data set [1] came to 0.41 nM. In addition, the CC50 (commonly the concentration giving 50% cytotoxicity) at 5 days in data set [2] was greater than 14600 nM. In the data set on RSV A2 strain, the IC50 came to 0.65 nM and the inhibition – broadly, how much of the control response was suppressed – at 0.1 µg/mL came out at 100%. In addition, in the data set with RSV B Washington strain, the IC50 worked out at 54.5 nM and the inhibition at 1 µg/mL was 92%.
With `O=C(Nc1c(F)cccc1Cl)c1cc2c(s1)-c1ccccc1N(C(=O)c1ccc(NC(=O)c3cccnc3N3CC4(CCOCC4)C3)cc1)CC2` [Example 26, 6-(4-(2-(7-oxa-2-azaspiro[3.5]nonan-2-yl)nicotinamido)benzoyl)-N-(2-chloro-6-fluorophenyl)-5,6-dihydro-4H-benzo[b]thieno[2,3-d]azepine-2-carboxamide], in data set [1], the IC50 turned out to be 0.14 nM. For the same compound, the CC50 at 5 days in data set [2] is greater than 13800 nM. Besides, in the data set with RSV A2 strain, the IC50 was 0.12 nM and the inhibition at 0.1 µg/mL amounted to 95%. In the data set on RSV B Washington strain, the IC50 was determined as 9.3 nM and the inhibition at 1 µg/mL was 73%.
Consider `O=C(Nc1c(F)cccc1F)c1cc2c(s1)-c1ccccc1N(C(=O)c1ccc(NC(=O)c3cc4c(nc3N3CC5(CCOCC5)C3)CCC4)cc1)CC2` [Example 75, 6-(4-(2-(7-oxa-2-azaspiro[3.5]nonan-2-yl)-6,7-dihydro-5H-cyclopenta[b]pyridine-3-carboxamido)benzoyl)-N-(2,6-difluorophenyl)-5,6-dihydro-4H-benzo[b]thieno[2,3-d] azepine-2-carboxamide], for which, in data set [1], the IC50 amounted to 0.25 nM. Also, the CC50 at 5 days in data set [2] was greater than 13400 nM. Also, in the data set on RSV A2 strain, the IC50 was found to be 0.1 nM and the inhibition at 0.01 µg/mL came out at 84%. For the same compound, in the data set with RSV B Washington strain, the IC50 stood at 2.3 nM and the inhibition at 1 µg/mL stood at 100%.
With `O=C(Nc1c(F)cccc1F)c1cc2c(s1)-c1ccccc1N(C(=O)c1ccc(NC(=O)c3cccnc3N3CC4(CCOCC4)C3)cc1F)CC2` [Example 30, 6-(4-(2-(7-oxa-2-azaspiro[3.5]nonan-2-yl)nicotinamido)-2-fluorobenzoyl)-N-(2,6-difluorophenyl)-5,6-dihydro-4H-benzo[b]thieno[2,3-d]azepine-2-carboxamide], the IC50 in data set [1] worked out at 0.27 nM; in the data set on RSV A2 strain, 0.12 nM; in the data set with RSV B Washington strain, 27.3 nM. The CC50 at 5 days in data set [2] is greater than 13800 nM. For the same compound, the inhibition at 0.1 µg/mL in the data set with RSV A2 strain amounted to 100%. Also, the inhibition at 1 µg/mL in the data set on RSV B Washington strain was 94%.
With `O=C(Nc1c(F)cccc1Cl)c1cc2c(s1)-c1ccccc1N(C(=O)c1ccc(NC(=O)c3cc(C4CC4)cnc3N3CC4(CCOCC4)C3)cc1)CC2` [Example 65, N-(2-chloro-6-fluorophenyl)-6-(4-(5-cyclopropyl-2-(7-oxa-2-azaspiro[3.5]nonan-2-yl)nicotinamido)benzoyl)-5,6-dihydro-4H-benzo[b]thieno[2,3-d]azepine-2-carboxamide], the IC50 in data set [1] turned out to be 0.59 nM; with RSV A2 strain, 0.13 nM; in the data set with RSV B Washington strain, 1.6 nM. In data set [2], this compound yielded a CC50 at 5 days greater than 13100 nM. Further, testing at 0.01 µg/mL in the data set on RSV A2 strain gave an inhibition of 100%. For the same compound, the inhibition at 1 µg/mL in the data set with RSV B Washington strain came to 100%.
